Structures are written as SMILES. Some results are limits rather than exact numbers.

Chain of SIK2 (Q9H0K1 whole entry, species assumed): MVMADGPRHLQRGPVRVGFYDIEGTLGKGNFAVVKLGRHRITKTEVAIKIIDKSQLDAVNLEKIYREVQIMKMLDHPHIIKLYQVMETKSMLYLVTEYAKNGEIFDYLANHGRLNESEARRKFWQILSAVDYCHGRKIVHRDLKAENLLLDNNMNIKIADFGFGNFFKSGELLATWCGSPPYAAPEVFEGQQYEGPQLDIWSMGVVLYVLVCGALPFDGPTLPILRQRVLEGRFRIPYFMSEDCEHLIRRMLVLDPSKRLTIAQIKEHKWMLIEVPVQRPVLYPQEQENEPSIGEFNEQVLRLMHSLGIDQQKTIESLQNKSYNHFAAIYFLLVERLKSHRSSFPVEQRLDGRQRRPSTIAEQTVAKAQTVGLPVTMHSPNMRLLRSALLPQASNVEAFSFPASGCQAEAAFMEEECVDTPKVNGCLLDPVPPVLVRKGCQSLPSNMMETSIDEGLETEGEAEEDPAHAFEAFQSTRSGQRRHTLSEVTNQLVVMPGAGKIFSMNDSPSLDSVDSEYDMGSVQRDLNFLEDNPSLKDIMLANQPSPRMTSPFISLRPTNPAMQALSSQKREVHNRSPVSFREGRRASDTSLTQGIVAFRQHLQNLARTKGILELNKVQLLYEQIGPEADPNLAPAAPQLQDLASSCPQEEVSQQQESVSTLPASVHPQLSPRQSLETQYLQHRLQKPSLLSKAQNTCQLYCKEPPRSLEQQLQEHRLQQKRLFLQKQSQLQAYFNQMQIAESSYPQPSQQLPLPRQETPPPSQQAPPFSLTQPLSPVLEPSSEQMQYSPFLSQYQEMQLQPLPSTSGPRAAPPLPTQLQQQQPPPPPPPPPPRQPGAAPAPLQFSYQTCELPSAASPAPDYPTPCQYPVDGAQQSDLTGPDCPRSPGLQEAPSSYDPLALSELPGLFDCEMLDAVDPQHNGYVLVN

One experiment has as its target SIK2 (Homo sapiens, UniProt Q9H0K1). Put plainly: SIK2 Enzymatic Assay High Version 2 (High ATP). Format: biochemical.
Conditions: not given
A digest of the protocol:
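At room temperature, enzyme (6 nM, 2× final) was preincubated with compound for 30 min, then 6 mM ATP and 400 μM HDAC5tide (both 2× final) were added for 2 h. ADP formed was measured by ADP-Glo Max (2 h reagent, 1 h detection) using luminescence.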
As for `Cc1cc(-c2ccn3nc(N)cc3c2)c(O[C@H]2C[C@H]3COC[C@@H](C2)N3)cn1` [Example 405, 5-(5-(((1R,5S,7s)-3-oxa-9-azabicyclo[3.3.1]nonan-7-yl)oxy)-2-methylpyridin-4-yl)pyrazolo[1,5-a]pyridin-2-amine], the IC50 is less than 0.000847 µM. Same read-out and setting: then `Cc1cc(-c2ccn3nc(NC(=O)C4CC4)cc3c2)c(O[C@@H]2[C@@H]3CO[C@H]2CN3)cn1` [Example 165, N-(5-(5-(((1S,4S,7R)-2-oxa-5-azabicyclo[2.2.1]heptan-7-yl)oxy)-2-methylpyridin-4-yl)pyrazolo[1,5-a]pyridin-2-yl)cyclopropanecarboxamide], with 0.00823 µM.

The experiment is the same for the next values; noted with them: enzyme 6 nM, 6 mM ATP and 400 μM HDAC5tide (each 2× final concentration); 30 minutes pre-incubation, 2 hours; ADP-Glo Max luminescence; read-out: SIK2 high ATP IC50 (μM) (Test Example 2).
As to `CC#Cc1cc(-c2ccn3nc(Nc4cc(C)nc(C)n4)cc3c2)c(N[C@H]2CC[C@@H](O)CC2)cn1` [Example 362, 4-[[4-[2-[(2,6-dimethylpyrimidin-4-yl)amino]pyrazolo[1,5-a]pyridin-5-yl]-6-prop-1-ynyl-3-pyridyl]amino]cyclohexanol], the IC50 was found to be 0.016 µM. On the same count and under the same terms, then `Cc1cc(-c2ccn3nc(Nc4cc(C)nc(C)n4)cc3c2)c(O[C@@H]2CCS(=O)(=O)N(C)C2)cn1` (single isomer, unassigned) [Example 354, (*R)—N-(2,6-dimethylpyrimidin-4-yl)-5-[2-methyl-5-(2-methyl-1,1-dioxo-thiazinan-4-yl)oxy-4-pyridyl]pyrazolo[1,5-a]pyridin-2-amine], with 0.0322 µM; and `Cc1cncc(Nc2cc3cc(-c4cc(OCC(F)F)ncc4OCC(C)(C)C#N)ccn3n2)n1` [Example 696, 3-[[6-(2,2-difluoroethoxy)-4-[2-[(6-methylpyrazin-2-yl)amino]pyrazolo[1,5-a]pyridin-5-yl]-3-pyridyl]oxy]-2,2-dimethyl-propanenitrile], with 0.0821 µM; and `Cc1cc(-c2ccn3nc(Nc4cc(C)nc(C)n4)cc3c2)c(OCC2CC(=O)N(C)C2(C)C)cn1` (racemic) [Example 325, (rac)-4-[[4-[2-[(2,6-dimethylpyrimidin-4-yl)amino]pyrazolo[1,5-a]pyridin-5-yl]-6-methyl-3-pyridyl]oxymethyl]-1,5,5-trimethyl-pyrrolidin-2-one], with 0.00265 µM.

In the case of `COc1cc(-c2ccn3nc(Nc4cc(C)nc(C)n4)cc3c2)c(OC[C@@H]2CNCCO2)cn1` [Example 496, N-(2,6-dimethylpyrimidin-4-yl)-5-[2-methoxy-5-[[(2S)-morpholin-2-yl]methoxy]-4-pyridyl]pyrazolo[1,5-a]pyridin-2-amine], the IC50 is 0.00143 µM.

Consider `Cc1cc(Nc2cc3cc(-c4cc(OC(F)(F)F)ccc4OCC(C)(C)C#N)ccn3n2)nc(C)n1` [Example 754, 3-[2-[2-[(2,6-dimethylpyrimidin-4-yl)amino]pyrazolo[1,5-a]pyridin-5-yl]-4-(trifluoromethoxy)phenoxy]-2,2-dimethyl-propanenitrile], for which the IC50 amounted to 0.071 µM. The same measure, in the same setting: with `Cc1cc(-c2ccn3nc(NC(=O)C4CC4)cc3c2)c(OC[C@]2(C#N)CCNC2)cn1` (single isomer, unassigned) [Example 211, (*R)—N-[5-[5-[[(3R)-3-cyanopyrrolidin-3-yl]methoxy]-2-methyl-4-pyridyl]pyrazolo[1,5-a]pyridin-2-yl]cyclopropanecarboxamide] the figure was 0.013 µM; with `Cc1cc(-c2ccn3nc(Nc4cc(C)nc(C)n4)cc3c2)c(OC[C@H]2COC3(CCCC3)O2)cn1` (single isomer, unassigned) [Example 544, (*S)—N-(2,6-dimethylpyrimidin-4-yl)-5-[5-(6,9-dioxaspiro[4.4]nonan-8-ylmethoxy)-2-methyl-4-pyridyl]pyrazolo[1,5-a]pyridin-2-amine], 0.0147 µM. Still for that read-out and setting: with `Cc1cc(-c2ccn3nc(Nc4cc(C)nc(C)n4)cc3c2)c(OC[C@]2(O)CCCOC2)cn1` (single isomer, unassigned) [Example 608, (*S)-3-[[4-[2-[(2,6-dimethylpyrimidin-4-yl)amino]pyrazolo[1,5-a]pyridin-5-yl]-6-methyl-3-pyridyl]oxymethyl]tetrahydropyran-3-ol] the figure was 0.0922 µM. Still for that read-out and setting: with `Cc1cc(-c2ccn3nc(Nc4cc(C)nc(C(F)(F)F)n4)cc3c2)c(OCC(C)(C)O)cn1` [Example 537, 2-methyl-1-[[6-methyl-4-[2-[[6-methyl-2-(trifluoromethyl)pyrimidin-4-yl]amino]pyrazolo[1,5-a]pyridin-5-yl]-3-pyridyl]oxy]propan-2-ol] the figure was 0.0241 µM.

Take `Cc1cc(-c2ccn3nc(Nc4cc(C)c(=O)n(C)n4)cc3c2)c(OCC(C)(C)O)cn1` [Example 209, 6-[[5-[5-(2-hydroxy-2-methyl-propoxy)-2-methyl-4-pyridyl]pyrazolo[1,5-a]pyridin-2-yl]amino]-2,4-dimethyl-pyridazin-3-one]: the IC50 worked out at 0.0171 µM.

On to `Cc1cc(Nc2cc3cc(-c4cc(C(F)F)ncc4OCC(C)(C)O)ccn3n2)nc(C)n1` [Example 493, 1-[[6-(difluoromethyl)-4-[2-[(2,6-dimethylpyrimidin-4-yl)amino]pyrazolo[1,5-a]pyridin-5-yl]-3-pyridyl]oxy]-2-methyl-propan-2-ol], for which the IC50 was determined as 0.0662 µM. Same read-out and setting: with `Cc1cc(-c2ccn3nc(NC(=O)C4CC4)cc3c2)c(O[C@H](CN)c2ccccc2)cn1` [Example 466, N-[5-[5-[(1S)-2-amino-1-phenyl-ethoxy]-2-methyl-4-pyridyl]pyrazolo[1,5-a]pyridin-2-yl]cyclopropanecarboxamide] the figure was 0.00115 µM; with `N#CCN1CC[C@@H](COc2cnc(C#N)cc2-c2ccn3nc(NC(=O)C4CC4)cc3c2)C1` [Example 563, N-[5-[2-cyano-5-[[(3R)-1-(cyanomethyl)pyrrolidin-3-yl]methoxy]-4-pyridyl]pyrazolo[1,5-a]pyridin-2-yl]cyclopropanecarboxamide], 0.038 µM.

For the compound `Cc1cc(Nc2cc3cc(-c4cc(OC(F)F)ncc4OCC(C)(N)C(F)(F)F)ccn3n2)nc(C)n1` (single isomer, unassigned) [Example 755, (*R)-5-[5-(2-amino-3,3,3-trifluoro-2-methyl-propoxy)-2-(difluoromethoxy)-4-pyridyl]-N-(2,6-dimethylpyrimidin-4-yl)pyrazolo[1,5-a]pyridin-2-amine], the 50% inhibitory concentration (IC50) came to 0.00215 µM. The same measure, in the same setting: then `Cc1cc(-c2ccn3nc(Nc4cc(C)nc(C)n4)cc3c2)c(OC2CCC(S(C)(=O)=O)CC2)cn1` (centres unmarked) [Example 551, N-(2,6-dimethylpyrimidin-4-yl)-5-[2-methyl-5-(4-methylsulfonylcyclohexoxy)-4-pyridyl]pyrazolo[1,5-a]pyridin-2-amine], with 0.00832 µM; and `Cc1cc(-c2ccn3nc(NC(=O)C4CC4)cc3c2)c(OC[C@](C)(O)C(F)(F)F)cn1` (single isomer, unassigned) [Example 190, (*S)—N-(5-(2-methyl-5-(3,3,3-trifluoro-2-hydroxy-2-methylpropoxy)pyridin-4-yl)pyrazolo[1,5-a]pyridin-2-yl)cyclopropanecarboxamide], with 0.0255 µM.

As to `Cn1nc(Nc2cc3cc(-c4cc(OC(F)F)ncc4OCC(C)(C)C#N)ccn3n2)ccc1=O` [Example 702, 3-[[6-(difluoromethoxy)-4-[2-[(1-methyl-6-oxo-pyridazin-3-yl)amino]pyrazolo[1,5-a]pyridin-5-yl]-3-pyridyl]oxy]-2,2-dimethyl-propanenitrile], the 50% inhibitory concentration (IC50) amounted to 0.00317 µM.

These data come from patent US20240158392A1 (Janssen Biotech, Inc., priority 2021, published 2024).
